Patent US20040229379A1, “Assay” (priority 2003, published 2004)

Test system: PDHK
Assay: Binding affinity of fluorescent binder structures for PDHK

Cc1cc(C)n2c1C=C1C=CC(CCC(=O)NCc3ccc(C(=O)N4C[C@H](C)N(C(=O)[C@@](C)(O)C(F)(F)F)C[C@H]4C)cc3)=[N+]1[B-]2(F)F [(IV)]
binding affinity for PDHK relative to (III/IIIA): lower binding affinity for PDHK than (III/IIIA)
